Here are results for one substance from patent publication US10532085B2, “Methods for increasing intracellular activity of Hsp70” (Orphazyme A/S, priority 2010, dated 2020).

In assay [1] the test system is primary fibroblasts from Mucopolysaccharidosis type IVA patient. Kind of assay: Lysosomal cross-sectional area, laser confocal microscopy, MPS IVA fibroblasts. Type of assay: cell-based, human. The note with it: Alexa Fluor 488 labelled, added for 48 h; GM00958. The protocol: FIG. 9: Test of rhHSP70 in non-sphingolipidosis. rhHSP70 labelled with Alexa Fluor 488 (for visualization of uptake) was added for 48 h to primary fibroblasts from Mucopolysaccharidosis type IVA (aka (Morbus) Morquio type IVA) patient (Coriell Cell Repository ID: GM00958). Read-out: lysosomal cross-sectional area (Primary cellular pathology), performed by laser confocal microscopy.

Assay [2] is described as follows: Liposome 90° light scattering, LUVs with negatively charged lipids. The format is binding. Conditions: neutral pH; irrespective of charge density (−1 to −2). The text has this: Thus, we investigated the interaction of Hsp70 with palmitoyl-oleoyl-phosphatidylcholine (POPC) large unilamellar vesicles (LUVs) containing various membrane-associated anionic lipids, i.e. palmitoyl-oleoyl-phosphatidylserine (POPS; primarily in plasma membrane), cardiolipin (primarily mitochondrial) and BMP (primarily in late endosomes/lysosomes). Taking into account the increasingly acidic milieu of the endo-lysosomal compartment upon maturation to lysosomes, we compared the protein-lipid interactions in neutral (pH 7.4) and acidic (pH 6.0) conditions. […] As reported earlier for POPS, all negatively charged lipids enhanced the binding of rHsp70 to the liposomes at neutral pH approximately 4-fold irrespective of the charge density on the liposome surface (ranging from −1 to −2).
The tryptophan fluorescence spectra (RFI) and liposome 90° light scattering (RSI) were analyzed in a HEPES buffer (20 mM HEPES, 0.1 mM EDTA, pH 7.4 or 6.0 as indicated) employing LUVs consisting of indicated lipids essentially as described in the art. For the RFI, LUVs were added in 10 μM aliquots and spectra recorded after a 20 min stabilization period. For the RSI, recombinant proteins were added in 0.12 nmol aliquots.

The target of another assay is T1, ASM (Mus musculus, UniProt Q04519).
T1 construct: endogenous in cells; host or cells: immortalized wild-type murine embryonic fibroblasts (WT-MEFs)
T1 sequence (Q04519 45-627): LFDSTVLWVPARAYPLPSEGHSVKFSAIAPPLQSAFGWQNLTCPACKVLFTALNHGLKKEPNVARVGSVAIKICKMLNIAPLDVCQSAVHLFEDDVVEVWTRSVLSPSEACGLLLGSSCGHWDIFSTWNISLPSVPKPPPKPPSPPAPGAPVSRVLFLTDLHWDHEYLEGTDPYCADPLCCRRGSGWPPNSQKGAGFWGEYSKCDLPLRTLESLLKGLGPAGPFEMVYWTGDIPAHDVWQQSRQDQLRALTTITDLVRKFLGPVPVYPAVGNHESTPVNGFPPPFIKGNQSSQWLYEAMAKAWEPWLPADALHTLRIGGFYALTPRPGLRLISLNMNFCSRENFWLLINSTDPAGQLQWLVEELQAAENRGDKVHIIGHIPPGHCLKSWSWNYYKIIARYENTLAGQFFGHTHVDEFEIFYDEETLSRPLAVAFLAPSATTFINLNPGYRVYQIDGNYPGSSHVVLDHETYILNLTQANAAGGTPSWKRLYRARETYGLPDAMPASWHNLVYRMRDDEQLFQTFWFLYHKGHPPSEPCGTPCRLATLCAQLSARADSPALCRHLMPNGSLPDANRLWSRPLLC
Kind of assay: ASM activity in WT-MEFs. The format is cell-based, murine. Conditions: 300 nM (cytoprotective concentration). The text has this: (§1) BMP binds ASM with high affinity and stimulates its ability to hydrolyze sphingomyelin to ceramide and phosphorylcholine. […] In order to test whether ASM is responsible for the lysosome stabilizing effect we treated the cells with desipramine, a well characterized pharmacological ASM inhibitor. […] It should be noted that akin to rHsp70, also rASM localized to the lysosomes.
WT- and Hsp70-MEFs were generated, immortalized and maintained as described in the art. Human NPDA fibroblasts (83/24) originate from a skin biopsy of a patient with hepatosplenomegaly. […] The photo-oxidation-induced loss of the lysosomal pH-gradient and leakage of acridine orange to the cytosol from individual lysosomes was quantified visually as “loss of red dots” in U2-O—S cells and as a decrease in red and an increase in green fluorescence by Zeiss LSM DUO Software in fibroblasts. The total and cytoplasmic (digitonin-extracted) cathepsin activities were measured in digitonin-treated samples using zFR-AFC (Enzyme System Products) probe as described in the art. The tryptophan fluorescence spectra and liposome 90° light scattering were analyzed in a HEPES buffer (20 mM HEPES, 0.1 mM EDTA, pH as indicated) essentially as described in the art. […] Apoptosis-like cell death and lysosomal membrane permeabilization were analyzed essentially as described in the art. […]

The test system of a further assay is NPDA cells. Kind of assay: Lysosomal stability in NPDA cells. Type of assay: cell-based, Human. The protocol:
as §1
Sub-confluent cells incubated with 2 μg/ml acridine orange for 15 min at 37° C. were washed, irradiated and analyzed in Hanks balanced salt solution complemented with 3% fetal calf serum. Cells for single cell imaging were selected from 8 pre-defined areas of each well in transmitted light-mode after which the same cells were immediately visualized and exposed to blue light from USH102 100W mercury arc burner (Ushio electric) installed in a U-ULS100HG housing (Olympus) for 20 sec. Fluorescence microscopy was performed on Olympus IX-70 inverted microscope with a LCPlanF1 ×20 objective with NA=0.40. Loss of lysosomal pH gradient was quantified by counting the loss of intense red staining. A more elaborate method for assaying lysosomal integrity was developed to handle the larger lysosomal compartment of the various fibroblasts used in this study. […] The resulting timelapse movies where subsequently analysed by the integrated Zeiss LSM DUO software.

As to “rHsp70: recombinant (human) heat shock protein 70; in some tests labelled with Alexa Fluor 488”, in assay [1], the “lysosomal cross-sectional area (primary cellular pathology)” value is given as “effectively reverts the lysosomal primary pathology”. The “enhancement of binding to liposomes by negatively charged lipids” value in assay [2] is given as “approximately 4 fold”. The ASM activity result with ASM was “increased the ASM activity to the level comparable to that in Hsp70-MEFs”. Further, the “stabilization of lysosomes in NPDA cells” value with NPDA cells was “stabilize the lysosomes”.
